# Results as given in patent US20100120084A1, “REACTION MEDIUM FOR IDENTIFYING/DETECTING MICROORGANISMS” (Biomerieux, priority 2007, published 2010).
# Where two headings read alike, the source gives them in different places.
# Tests used:
# β-lactamase = β-lactamase resistance to heat degradation (residual amoxicillin by HPLC); details: for [Amoxicillin] (arbitrary units): amoxicillin 500 mg·L^−1, 5 min at 25° C.
# Procedure: β-Lactamase (Genzyme Biochemicals Ref. BELA-70-1431) in an amount equivalent to 0.375 U·mL^−1 was mixed with the cyclodextrin BCD A56 of the Protéosol® range (1 or 10 mM), at ambient temperature and in the dark, for 30 min. The mixture was then heated at 70° C. for 45 min. […] After incubation for 5 min at 25° C., the residual amoxicillin was analyzed by HPLC.
# On the basis of the above profiles, it was possible to quantify the concentration of amoxicillin and to link this value to the β-lactamase activity.
# [1] = Stability of cefoxitin in the presence of cyclodextrins at 65° C. (HPLC); format: physicochemical
# Procedure: 0.444 mM of cefoxitin (Sigma, Ref. C4786-5G) and 8.88 mM of cyclodextrin (ACD N0 or GCD NO or BCD R59 or BCD C15), i.e. in a molar ratio of 1:20, were dissolved with stirring for one hour at ambient temperature. The mixture was then brought to 65° C. for 90 min. The integrity of the cefoxitin was then analyzed by HPLC. The analysis of the samples and the quantification thereof were carried out on a Thermo Finnigan SpectraSYSTEM HPLC system equipped with a P1000XR pump, an AS3000 automatic injector, a UV1000 UV/visible detector, and a Merck Chromolith® Performance RP-18 endcapped column (100-4.6 mm) preceded by a Merck Chromolith® RP-18e guard column (5-4.6 mm).
# (§1) The mobile phases were prepared using HPLC-grade acetonitrile and water acidified with trifluoroacetic acid (100 μL/L). A methanol/water gradient of 0/100 to 100/0 was applied in 12 min. After stabilization for 2 min, the column is reequilibrated under the initial conditions. The elution speed is 1 mL/min, the temperature is 22° C. and the detection is carried out at 254 nm. The sample injection volume is 20 μL. The chromatographic data were processed using the Atlas software, version 2003.1 (Thermo Electron Corporation, UK).
# The optimization of protection was sought by varying the cefoxitin:cyclodextrin (BCD R59 and BCD C15) molar ratio from 1:1 to 1:216, the other conditions remaining unchanged. […] The improvement in stability was calculated relative to the control without cyclodextrin.
# [2] = format: physicochemical; details: for native molecule (cloxacillin) found after heating: 31 h at 75° C.
# Procedure: Cloxacillin (molecular mass 475.88) is an antibiotic of β-lactam type, used to inhibit the growth of certain bacterial species such as Enterobacter aerogenes or Escherichia coli. The cyclodextrins of the BioCydex library were incubated with cloxacillin in a 1:1 molar ratio (concentration=210.12 mM), at 20° C. for 72 h (shaking in the dark). The amount of residual cloxacillin was then analyzed by HPLC.
# The following tests were carried out in an aqueous medium and at high temperature (75° C.) in order to accelerate the rate of degradation.
# The complexes were prepared at ambient temperature with cloxacillin:cyclodextrin molar ratios of 1:16 and of 1:79. The solutions containing 0.63 mM, i.e. 300 mg·L^−1, of cloxacillin were incubated at 75° C. for 31 h. The analysis of the samples and the quantification thereof so as to evaluate the stability of the antibiotic were carried out on a Thermo Finnigan SpectraSYSTEM HPLC system equipped with a P1000XR pump, an AS3000 automatic injector, a UV1000 UV/visible detector, and a Merck Chromolith® Performance RP-18 endcapped column (100-4.6 mm) preceded by a Merck Chromolith® RP-18e guard column (5-4.6 mm).
# as §1, with “220” for “254”
# [3] = cloxacillin complexed with cyclodextrin
compound,measurement,setting,value
6^I-(3-aminopropylamino)-6^I-deoxycyclomaltoheptaose [BCD A56],protection of the β-lactamase against heat,"β-lactamase; BCD A56 at 10 mM, reference: absence of cyclodextrin",excellent protection
same,interaction with the active site of the enzyme,β-lactamase; β-lactamase + BCD A56,did not interact
same,[Amoxicillin] (arbitrary units),β-lactamase; β-lactamase heated 70° C. 45 min + BCD A56 at 1 mM,4.3 arbitrary units
same,[Amoxicillin] (arbitrary units),β-lactamase; β-lactamase heated 70° C. 45 min + BCD A56 at 10 mM,0.8 arbitrary units
"CO[C@@]1(NC(=O)Cc2cccs2)C(=O)N2C(C(=O)O)=C(COC(N)=O)CS[C@@H]21 [cefoxitin, reference compound]",stability of cefoxitin,"[1]; cefoxitin:cyclodextrin molar ratio 1:50, 90 min at 65° C.",47.5%
same,Cefoxitin stability/%,"[1]; no cyclodextrin, 0.444 mM cefoxitin, 65° C. for 90 min",38.5%
"Cc1onc(-c2ccccc2Cl)c1C(=O)N[C@@H]1C(=O)N2[C@@H]1SC(C)(C)[C@@H]2C(=O)O [cloxacillin, reference compound]",Cloxacillin stability (%),"[2]; 31 h, 0.63 mM",0.6%
same,native molecule (cloxacillin) found after heating,[2]; cloxacillin not associated with cyclodextrin,0%
"randomly 2,3,6-O-(2-hydroxypropyl)cyclomaltoheptaose [BCD R59]",native molecule (cloxacillin) found after heating,[2]; [3],40%
randomly 2-O-methyl-cyclomaltoheptaose [BCD C15],"protection of cloxacillin against heat degradation, comparison of cyclodextrins",[2],best protection
same,native molecule (cloxacillin) found after heating,[2]; [3],40%
same,complexed antibiotic (cefoxitin) less degraded than the molecule alone,[1],approximately 10%
same,"protection of cefoxitin, comparison of BCD R59 and BCD C15","[1]; molar ratios between 1:6 and 1:30, FIG. 2",most effective
